According to patent US8765720B2, “Combination therapy for the treatment of multiple myeloma” (Cephalon, Inc., priority 2009, dated 2014):

Tests used:
RPMI8226 cells [1] = test: Cell viability assay (MTS assay), RPMI8226 cells; assay type: cell-based, human; details: RPMI8226, 48 hours
Method: Combination indices (CIs) were calculated separately for each combination. […] CIs between 0.9 and 1.1 were considered to indicate additive drug effects (31).

RPMI8226 cells [2] = test: Apoptotic assay by annexin V and propidium iodide staining; assay type: cell-based, human; details: 2.5 nM for each drug, 30 hours
Method: To quantify apoptosis in response to drug treatment, RPMI8226 cells (5×10^5 cells per well) were incubated with vehicle or PIs at 37° C. and 5% CO2 for 30 hours. As a positive control, cells were incubated with 250 ng/mL of actinomycin D for 24 or 48 hours. Cells were then washed twice with phosphate-buffered saline, resuspended in binding buffer (100 mM HEPES/NaOH, pH 7.5 containing 1.4 M NaCl and 25 mM CaCl2), and stained with fluorescein isothiocyanate (FITC)-conjugated annexin V and with the fluorescent dye propidium iodide (PrI), according to the manufacturer's protocol (BioVision, Mountain View, Calif.). For each drug treatment, 1×10^5 gated events were recorded. Cells negative for both PI and annexin V staining were considered live; annexin V-positive, PrI-negative cells were considered early apoptotic; annexin V-positive, PrI-positive cells were considered late apoptotic. Flow cytometric analyses were performed using a Beckman Coulter FC500 cytometer with Cytomics CXP software (Beckman Coulter, Fullerton, Calif.).

LAGκ-1B tumor = test: Intramuscular LAGκ-1B tumor xenograft model (tumor volume); details: for delay of tumor volume growth to 300 mm^3: oral 5 mg/kg daily; for delay of tumor volume at 220 mm^3 / Percentage T/C: oral 10 mg/kg twice weekly
Method: Six- to 8-week-old male severe combined immunodeficient (SCID) mice were obtained from the Jackson Laboratory (Bar Harbor, Me.) and maintained in a specific pathogen-free area in our animal resources facility. All animal studies were conducted according to protocols approved by the Institutional Animal Care and Use Committee. Animals were anesthetized with ketamine, xylazine, and isoflurane prior to surgery and were euthanized when tumors reached 2 cm in diameter.
Biopsy tissue was surgically implanted in the hind limbs of anesthetized SCID mice and passaged through succeeding generations (32).
Myeloma tumors (LAGκ-1A or LAGκ-1B) were excised from an anesthetized donor mouse, sectioned into 20 to 40 mm^3 pieces, and surgically implanted into the left superficial gluteal muscle of anesthetized naive SCID mice. Recipient mice received weekly injections of anti-asialo GM1 rabbit serum (Wako Bioproducts, Richmond, Va.) to further suppress immune activity. Mice were blindly assigned to one of the experimental groups, and treatment was initiated 7 to 21 days after tumor implantation. COMPOUND 1 was administered via oral gavage daily (0.5-5.0 mg/kg) or twice weekly (5-10 mg/kg). COMPOUND 1 was also administered twice weekly (W, F) via either IV injection (0.5-3.0 mg/kg) or oral gavage (10 mg/kg), as specified. […] Bortezomib (0.5 mg/kg) was dispensed twice weekly (T, Th) via IV injection. Control treatment consisted of COMPOUND 1 diluent (3.2 mL 5% mannitol and 800 μL propylene glycol) alone.
As a direct measurement of tumor growth, calipers were used to assess tumor volume weekly, and the formula for an ellipsoid volume was applied ( 4/3π×[width/2]^2×[length/2]).
Percent inhibition of tumor growth is represented as the tumor volume of the test drug group over the tumor volume of the untreated group (T/C). The optimal value is the minimal T/C ratio that reflects the maximal tumor growth inhibition achieved. The criterion for efficacy for the T/C ratio is ≦42%, according to National Cancer Institute (NCI) standard criteria (44).
Efficacy of drug therapy against tumors was standardized to the time (t) required for the untreated tumor to grow to a determined size based on the greatest difference in time to reach a tumor volume between the control and treatment group. This value can be represented as the growth delay (in days) between treated and control (tt−tc) (44).
Tumor growth and hIgG levels were analyzed in terms of treatment group means and standard error. Student's t-test was applied to determine the statistical significance of differences between treatment groups. Minimal significance level was P<0.05.

LAGλ-1 = LAGλ-1 MM tumor model; assay type: in vivo; details: COMPOUND 1 monotherapy
[3] = tested on: apoptosis-inducing factor (AIF); test: Immunohistochemical analysis of AIF expression in LAGκ-1B tumors; assay type: in vivo, SCID mice; details: COMPOUND 1 1 mg/kg, bortezomib 0.5 mg/kg, alone or both; tumors excised post-treatment
Method: LAGκ-1B tumors were fixed in 4% paraformaldehyde and cut into 5 μm sections. Briefly, sections were blocked with Tris-buffered saline with 0.05% Tween-20 (TBST) and 3% BSA for 1 hour at room temperature and then incubated overnight with a rabbit antibody against AIF (Sigma, St. Louis, Mo.). The sections were washed three times with TBST and treated with horse radish […] anti-rabbit antibody (KPL, Gaithersburg, Md.) diluted 1:500 in TBST at room temperature for 2 hours. The slides were washed three times in TBST and placed in 3-amino-9-ethylcarbazole (AEC) buffer for 5 minutes, and color was detected using an AEC kit (Dako, Glostrup, Denmark). Staining was documented using an Olympus BX51 microscope (Olympus Imaging America Inc., Center Valley, Pa.) and analyzed by Microsuite Biological Suite program (Olympus BX51).

[4] = bortezomib 0.5 mg/kg IV, COMPOUND 1 1 mg/kg IV, alone or together

CC(C)C[C@H](NC(=O)[C@@H](NC(=O)c1cccc(-c2ccccc2)n1)[C@@H](C)O)B(O)O [COMPOUND 1, [(1R)-1-[[(2S,3R)-3-hydroxy-2-[6-phenyl-pyridine-2-carbonyl)amino]-1-oxobutyl]amino]-3-methylbutylboronic acid] was tested, and the IC50 (RPMI8226 cells [1]; Homo sapiens, RPMI-8226) was 8.5 nM, the cytotoxicity at 0.009 µM (RPMI8226 cells [1]; Homo sapiens, RPMI-8226, single-agent COMPOUND 1 9.0 nM, read-out: decrease in cell viability) was 64% and the inhibition of viability (RPMI8226 cells [1]; COMPOUND 1 0.1-10 nM) was “concentration-dependent inhibition of viability”. The “proportion of cells in early apoptosis (PrI−/Annexin V+)” value (RPMI8226 cells [2]) was 10.4 % of cells, the “tumors, times smaller than control-treated mice” value (LAGκ-1B tumor; 3 mg/kg IV or 10 mg/kg oral twice weekly, after 14 days, P=0.0008 / P=0.0028) was 8 to 12 times and the “days to tumor progression” value (LAGκ-1B tumor; [4]) was 35 days. For the same compound, the “survival longer than vehicle-treated mice” value (LAGκ-1B tumor; [4]) was 20%, the “tumor growth vs vehicle” value (LAGκ-1B tumor; bortezomib 0.5 mg/kg IV, COMPOUND 1 1 mg/kg IV, alone or together, combination after 21 days P=0.0014) was “only modestly suppresses” and the “drug-related / toxicity-related deaths” value (LAGκ-1B tumor; by day 70, bortezomib 0.5 mg/kg IV, COMPOUND 1 1 mg/kg IV, alone or together) was “one death each”. The tumor volume (LAGκ-1B tumor; mouse, in vivo) was “partially inhibited”, the body weight (LAGκ-1B tumor; mouse, in vivo, po) was “without significant loss of body weight” and the tumor volume inhibition (LAGκ-1B tumor; oral 5 mg/kg daily or 10 mg/kg twice weekly, day 35, P=0.0327 / P=0.0018) was “significant tumor volume inhibition”. For the same compound, the “delay of tumor volume growth to 300 mm^3” value (LAGκ-1B tumor; day 31 control vs day 42) was 11 days, the “delay of tumor volume growth to 300 mm^3” value (LAGκ-1B tumor; vs no treatment) was 35.5% and the “delay of tumor volume at 220 mm^3” value (LAGκ-1B tumor; day 28 control vs day 42) was 14 days. For the same compound, the “Percentage T/C” value (LAGκ-1B tumor; day 35) was 21.6%, the “Percentage T/C” value (LAGκ-1B tumor; day 42) was 27.5% and the “Percentage T/C” value (LAGκ-1B tumor; day 49) was 26.1%. The “Percentage T/C” value (LAGκ-1B tumor; day 56) was 30.5%, the “delay of tumor volume at 220 mm^3” value (LAGκ-1B tumor; vs untreated control) was 50% and the “Ig levels and tumor volumes” value (LAGλ-1) was “statistically significant reduction”. The “AIF expression vs vehicle-treated tumors” value [3] was “elevated AIF expression”.
